According to patent US20240041827A1, “COMPOSITIONS FOR THE TREATMENT OF FAT RELATED CONDITIONS AND DISORDERS” (priority 2020, published 2024):

Test system: human visceral preadipocytes
Assay: in vitro
Experimental: Human visceral preadipocytes were seeded in 96-well white clear bottom plates at 10,000 cells per well in 100 μl pre-adipocyte medium and incubated overnight at 37° C. 5% CO2. On the following day, adipogenic differentiation was induced by addition of 100 μl/well differentiation medium and incubation continued for 5 days. Adipogenic differentiation was verified by microscopic evaluation, addition of adipored reagents and fluorescent measurement at Ex485 nm/Em572 nm. […] Staurosporine (1 μM) and 0.2% DMSO were used as controls. Plates were incubated at 37° C. 5% CO2 for 2, 6 and 24 hours. Following incubation, cytotoxicity was measured using Cell Titer Glo 2.0 (Promega).
Test Item RZL-12 (1-300 μM) was prepared on the day of the testing as 150 mM stock solutions in DMSO. The 150 mM represents a 500×stock of the highest desired tested concentration. The 150 mM stock solution was first serially diluted in DMSO to acquire 500×stock solutions for each of the RZL-012 concentrations. The 500×stock solutions were then diluted 1:25 in medium to acquire 20×intermediate stock solutions. Finally, the 20×intermediate stock solutions were further diluted 1:20 in the assay (on the plate) that included seeded cells.
The 600 μM represents a 20× stock of the highest desired tested concentration. […] Finally, the 20×intermediate stock solutions were further diluted 1:20 in the assay plate that included seeded cells.
Human visceral pre-adipocytes (HPrAD-vis): HPrAD-vis cells (Lonza cat #PT-5005) were thawed at 37° C. and transferred into 50 ml tubes containing pre-adipocytes PGM-2 growth medium (PBM-2, 10% FBS, 1-glutamine, GA-1000). Cells were centrifuged at 300 g for 10 minutes, the supernatant was removed (Leaving about 1 ml of wash medium for not disrupting the cells) and 2 ml fresh PGM-2 medium was added. After resuspension, cells were counted and seeded in T-75 and T25 flasks at a density of 9,000 cells/cm^2 ([…], 225,000 cells/T25 flask). Medium was changed every 2-3 days until reached confluence of 70%.
Cells were sub-cultured only once, as soon as they reached 70% confluence. For this purpose, the culture medium of each flask was removed and cells were washed once with 5 ml PBS. The flask was shaken to ensure that the entire surface was covered and the PBS was removed. Then, 3 ml/T75 flask or 1 ml/T25 flask of fresh dedicated Trypsin/EDTA solution (from Lonza) was added and the flasks were incubated for 3-4 minutes at RT until ˜90% cells were detached. The Trypsin/EDTA solution was then neutralized by addition of 6 ml/T75 flask or 3 ml/T25 flask of full PGM-2 growth medium. Cells were collected in 50 ml tubes and centrifuged 10 minutes at 300 g. The supernatant was removed and the cells were resuspended in 3 ml fresh medium. Cells were then counted using a haemacytometer slide after being diluted 1:2 in trypan blue (SIGMA). For sub-culturing, cells were seeded in new T75 flasks at a density of 9,000 cells/cm^2 containing 15 ml fresh growth medium. Alternatively, the cells were seeded in 96-well culture plates at a density of 10,000 cells/well for the cell treatments.
HPrAD-vis cells: HPrAD-vis passaged once were seeded in 96-well plates as described above (10000cells/well in 100 μl medium) and allowed to settle overnight at 37° C., 5% CO2. Following day, adipogenic differentiation was induced by addition of 100 μl/well differentiation medium and incubated for 5 days. Adipogenic differentiation was verified by microscopic evaluation, addition of adipored reagents and fluorescent measurement at Ex485 nm/Em572 nm. In the morning of day 6, test and reference items were prepared as described above. Cells' medium was replaced with 90 μl fresh differentiation medium. […] Staurosporine (1 μM) and 0.2% DMSO were used as controls. Plates were incubated at 37° C. 5% CO2 for 2, 6 and 24 hours. Following incubation, cell viability was determined using the CellTiter-Gg® viability reagent (Promega) with reading of plates for luminescence. […]

SMILES: C[N+](C)(C)CCCCCn1c2ccc(Br)cc2c2cc(Br)ccc21.[Cl-] [RZL-012, 5-(3,6-dibromo-9H-carbazol-9-yl)-N,N,N-trimethylpentan-1-aminium chloride]
- Average RZL-012 and collagenase induced cell death (% vs untreated cells) (RZL12 10 μM, Collagenase 0, 2 h of incubation): 10.4%
- Average RZL-012 and collagenase induced cell death (% vs untreated cells) (RZL12 10 μM, Collagenase 0, 24 h of incubation): 12.80%
- Average RZL-012 and collagenase induced cell death (% vs untreated cells) (RZL12 10 μM, Collagenase 0.1 μM, 2 h of incubation): 4.9%
- Average RZL-012 and collagenase induced cell death (% vs untreated cells) (RZL12 10 μM, Collagenase 0.1 μM, 24 h of incubation): 9.43%
- Average RZL-012 and collagenase induced cell death (% vs untreated cells) (RZL12 10 μM, Collagenase 0.3 μM, 2 h of incubation): 5.0%
- Average RZL-012 and collagenase induced cell death (% vs untreated cells) (RZL12 10 μM, Collagenase 0.3 μM, 24 h of incubation): 5.50%
- Average RZL-012 and collagenase induced cell death (% vs untreated cells) (RZL12 10 μM, Collagenase 1 μM, 2 h of incubation): 7.8%
- Average RZL-012 and collagenase induced cell death (% vs untreated cells) (RZL12 10 μM, Collagenase 1 μM, 24 h of incubation): 16.08%
- Average RZL-012 and collagenase induced cell death (% vs untreated cells) (RZL12 10 μM, Collagenase 3 μM, 2 h of incubation): 17.7%
- Average RZL-012 and collagenase induced cell death (% vs untreated cells) (RZL12 10 μM, Collagenase 3 μM, 24 h of incubation): 33.99%
- Average RZL-012 and collagenase induced cell death (% vs untreated cells) (RZL12 10 μM, Collagenase 10 μM, 2 h of incubation): 22.3%
- Average RZL-012 and collagenase induced cell death (% vs untreated cells) (RZL12 10 μM, Collagenase 10 μM, 24 h of incubation): 65.12%
- Average RZL-012 and collagenase induced cell death (% vs untreated cells) (RZL12 10 μM, Collagenase 30 μM, 2 h of incubation): 45.0%
- Average RZL-012 and collagenase induced cell death (% vs untreated cells) (RZL12 10 μM, Collagenase 30 μM, 24 h of incubation): 80.04%
- Average RZL-012 and collagenase induced cell death (% vs untreated cells) (RZL12 30 μM, Collagenase 0, 2 h of incubation): 50.4%
- Average RZL-012 and collagenase induced cell death (% vs untreated cells) (RZL12 30 μM, Collagenase 0, 24 h of incubation): 72.72%
- Average RZL-012 and collagenase induced cell death (% vs untreated cells) (RZL12 30 μM, Collagenase 0.1 μM, 2 h of incubation): 43.8%
- Average RZL-012 and collagenase induced cell death (% vs untreated cells) (RZL12 30 μM, Collagenase 0.1 μM, 24 h of incubation): 28.35%
- Average RZL-012 and collagenase induced cell death (% vs untreated cells) (RZL12 30 μM, Collagenase 0.3 μM, 2 h of incubation): 35.0%
- Average RZL-012 and collagenase induced cell death (% vs untreated cells) (RZL12 30 μM, Collagenase 0.3 μM, 24 h of incubation): 23.76%
- Average RZL-012 and collagenase induced cell death (% vs untreated cells) (RZL12 30 μM, Collagenase 1 μM, 2 h of incubation): 45.8%
- Average RZL-012 and collagenase induced cell death (% vs untreated cells) (RZL12 30 μM, Collagenase 1 μM, 24 h of incubation): 31.37%
- Average RZL-012 and collagenase induced cell death (% vs untreated cells) (RZL12 30 μM, Collagenase 3 μM, 2 h of incubation): 49.7%
- Average RZL-012 and collagenase induced cell death (% vs untreated cells) (RZL12 30 μM, Collagenase 3 μM, 24 h of incubation): 79.97%
- Average RZL-012 and collagenase induced cell death (% vs untreated cells) (RZL12 30 μM, Collagenase 10 μM, 2 h of incubation): 33.2%
- Average RZL-012 and collagenase induced cell death (% vs untreated cells) (RZL12 30 μM, Collagenase 10 μM, 24 h of incubation): 83.68%
- Average RZL-012 and collagenase induced cell death (% vs untreated cells) (RZL12 30 μM, Collagenase 30 μM, 2 h of incubation): 46.0%
- Average RZL-012 and collagenase induced cell death (% vs untreated cells) (RZL12 30 μM, Collagenase 30 μM, 24 h of incubation): 90.00%
- Average RZL-012 and collagenase induced cell death (% vs untreated cells) (RZL12 100 μM, Collagenase 0, 2 h of incubation): 99.7%
- Average RZL-012 and collagenase induced cell death (% vs untreated cells) (RZL12 100 μM, Collagenase 0, 24 h of incubation): 99.89%
- Average RZL-012 and collagenase induced cell death (% vs untreated cells) (RZL12 100 μM, Collagenase 0.1 μM, 2 h of incubation): 99.5%
- Average RZL-012 and collagenase induced cell death (% vs untreated cells) (RZL12 100 μM, Collagenase 0.1 μM, 24 h of incubation): 99.66%
- Average RZL-012 and collagenase induced cell death (% vs untreated cells) (RZL12 100 μM, Collagenase 0.3 μM, 2 h of incubation): 99.3%
- Average RZL-012 and collagenase induced cell death (% vs untreated cells) (RZL12 100 μM, Collagenase 0.3 μM, 24 h of incubation): 99.60%
- Average RZL-012 and collagenase induced cell death (% vs untreated cells) (RZL12 100 μM, Collagenase 1 μM, 2 h of incubation): 98.9%
- Average RZL-012 and collagenase induced cell death (% vs untreated cells) (RZL12 100 μM, Collagenase 1 μM, 24 h of incubation): 99.65%
- Average RZL-012 and collagenase induced cell death (% vs untreated cells) (RZL12 100 μM, Collagenase 3 μM, 2 h of incubation): 97.4%
- Average RZL-012 and collagenase induced cell death (% vs untreated cells) (RZL12 100 μM, Collagenase 3 μM, 24 h of incubation): 99.89%
- Average RZL-012 and collagenase induced cell death (% vs untreated cells) (RZL12 100 μM, Collagenase 10 μM, 2 h of incubation): 72.4%
- Average RZL-012 and collagenase induced cell death (% vs untreated cells) (RZL12 100 μM, Collagenase 10 μM, 24 h of incubation): 99.92%
- Average RZL-012 and collagenase induced cell death (% vs untreated cells) (RZL12 100 μM, Collagenase 30 μM, 2 h of incubation): 76.4%
- Average RZL-012 and collagenase induced cell death (% vs untreated cells) (RZL12 100 μM, Collagenase 30 μM, 24 h of incubation): 99.99%
- Average RZL-012 and collagenase induced cell death (% vs untreated cells) (RZL12 300 μM, Collagenase 0, 2 h of incubation): 99.9%
- Average RZL-012 and collagenase induced cell death (% vs untreated cells) (RZL12 300 μM, Collagenase 0, 24 h of incubation): 100.00%
- Average RZL-012 and collagenase induced cell death (% vs untreated cells) (RZL12 300 μM, Collagenase 0.1 μM, 2 h of incubation): 99.6%
- Average RZL-012 and collagenase induced cell death (% vs untreated cells) (RZL12 300 μM, Collagenase 0.1 μM, 24 h of incubation): 99.67%
- Average RZL-012 and collagenase induced cell death (% vs untreated cells) (RZL12 300 μM, Collagenase 0.3 μM, 2 h of incubation): 99.6%
- Average RZL-012 and collagenase induced cell death (% vs untreated cells) (RZL12 300 μM, Collagenase 0.3 μM, 24 h of incubation): 99.74%
- Average RZL-012 and collagenase induced cell death (% vs untreated cells) (RZL12 300 μM, Collagenase 1 μM, 2 h of incubation): 99.1%
- Average RZL-012 and collagenase induced cell death (% vs untreated cells) (RZL12 300 μM, Collagenase 1 μM, 24 h of incubation): 99.96%
- Average RZL-012 and collagenase induced cell death (% vs untreated cells) (RZL12 300 μM, Collagenase 3 μM, 2 h of incubation): 96.6%
- Average RZL-012 and collagenase induced cell death (% vs untreated cells) (RZL12 300 μM, Collagenase 3 μM, 24 h of incubation): 99.76%
- Average RZL-012 and collagenase induced cell death (% vs untreated cells) (RZL12 300 μM, Collagenase 10 μM, 2 h of incubation): 89.2%
- Average RZL-012 and collagenase induced cell death (% vs untreated cells) (RZL12 300 μM, Collagenase 10 μM, 24 h of incubation): 99.82%
- Average RZL-012 and collagenase induced cell death (% vs untreated cells) (RZL12 300 μM, Collagenase 30 μM, 2 h of incubation): 89.5%
- Average RZL-012 and collagenase induced cell death (% vs untreated cells) (RZL12 300 μM, Collagenase 30 μM, 24 h of incubation): 100.01%
- concentrations at which the cytotoxic effect was observed (at all time points (2, 6, 24 h)): > 30 µM
